According to patent US8937091B2 (Japan Science and Technology Agency, priority 2009, dated 2015):

Assays:
[1] = system: SOCE (store operated calcium entry) in CHO cells; assay: Assay of SOCE (store operated calcium entry)-inhibiting action; assay type: cell-based, Chinese hamster; conditions: for inhibition at 10 µM: test compound 10 μmol; for inhibition at 10 µM / inhibition at 30 µM / inhibition at 100 µM: read-out: SOCE level (percentage of inhibition); for inhibition at 30 µM: test compound 30 μmol
Method in brief: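 CHO cells in calcium-free BSS received compound, then 1 μM thapsigargin 2 min later to deplete stores; after 9 min, 2 mM calcium chloride (final) added. Percent inhibition of the rise in intracellular calcium determined at various compound concentrations.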

[2] = system: IICR (IP3 induced calcium release) in CHO cells; assay: Assay of IICR (IP3 induced calcium release)-inhibiting action; assay type: cell-based, Chinese hamster; conditions: for inhibition at 10 µM: test compound 10 μmol
Method in brief: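 Inhibition (%) of the intracellular calcium increase triggered by 10 μM ATP, measured in CHO cells in BSS with calcium. Compound given 1 min after the buffer exchange and 2 min before ATP; values reported per compound concentration.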

[3] = Cricetulus griseus, CHO, CHO cells, thapsigargin
[4] = Cricetulus griseus, CHO, test compound 100 μmol, CHO cells, thapsigargin
[5] = Cricetulus griseus, CHO, CHO cells, 10 μM ATP, read-out: IICR level (percentage of inhibition)
[6] = Cricetulus griseus, CHO, test compound 30 μmol, CHO cells, 10 μM ATP, read-out: IICR level (percentage of inhibition)
[7] = Cricetulus griseus, CHO, test compound 100 μmol, CHO cells, 10 μM ATP, read-out: IICR level (percentage of inhibition)
[8] = Cricetulus griseus, CHO, Table 1

| SMILES | inhibition at 10 µM [1, 3] [%] | inhibition at 30 µM [1, 3] [%] | inhibition at 100 µM [1, 4] [%] | inhibition at 10 µM [2, 5] [%] | inhibition at 30 µM [2, 6] [%] | inhibition at 100 µM [2, 7] [%] | IC50 [1, 8] [µM] | SOCE level (percentage of inhibition) ([1]; test compound 100 μmol, CHO cells, thapsigargin) [%] | inhibition at 20 µM ([2]; Cricetulus griseus, CHO, test compound 20 μmol, CHO cells, 10 μM ATP, read-out: IICR level (percentage of inhibition)) [%] | IC50 [2, 8] [µM] | IICR level (percentage of inhibition) ([2]; test compound 30 μmol, CHO cells, 10 μM ATP) [%] | IICR level (percentage of inhibition) ([2]; test compound 100 μmol, CHO cells, 10 μM ATP) [%] |
| --- | --- | --- | --- | --- | --- | --- | --- | --- | --- | --- | --- | --- |
| Cc1ccc(C(=O)CCN(Cc2ccccc2)C(C)C)o1 [Example 136] | 0 | 0 | 20 | 50 | 60 | 80 | – | – | – | – | – | – |
| Cc1ccc(C(=O)CCN(Cc2ccccc2)C(C)(C)C)o1 [Example 137, 2-(N-benzyl-t-butyl)aminoethyl-5-methyl-2-furylketone] | 0 | 0 | 0 | 40 | 50 | 50 | – | – | – | – | – | – |
| Cc1ccc(C(=O)CCN(Cc2ccccc2)Cc2ccccc2)o1 [Example 138, 2-(N-dibenzyl)aminoethyl-5-methyl-2-furylketone] | 0 | 10 | 20 | 0 | 0 | 10 | – | – | – | – | – | – |
| Cc1ccc(C(=O)CCN(CCO)Cc2ccccc2)o1 [Example 139, 2-(N-benzylhydroxyethyl)aminoethyl-5-methyl-2-furylketone] | 0 | 0 | 0 | 20 | 20 | 30 | – | – | – | – | – | – |
| Cc1ccc(C(=O)CCN(C)CCO)o1 [Example 140, 2-(N-methylhydroxyethyl)aminoethyl-5-methyl-2-furylketone] | 0 | 0 | 0 | 20 | 20 | 30 | – | – | – | – | – | – |
| CCC(CO)(CO)NCCC(=O)c1cccc2ccccc12 [Example 141] | 0 | 0 | 0 | 20 | 20 | 20 | – | – | – | – | – | – |
| CCN(CCC(=O)c1ccco1)Cc1ccccc1 [Example 142, 2-(N-benzylethyl)aminoethyl-2-furylketone] | 0 | 0 | 0 | 40 | 50 | 80 | – | – | – | – | – | – |
| O=C(CCN(CCO)CCO)c1nccs1 [Example 143, 2-(N,N-dihydroxyethyl)aminoethyl-2-thiazolylketone] | 0 | 0 | 10 | 0 | 50 | 90 | – | – | – | – | – | – |
| CCN(CCC(=O)c1cccnc1)Cc1ccccc1 [Example 144, 2-(N-benzylethyl)aminoethyl-3-pyridylketone] | 0 | 0 | 0 | 30 | 40 | 50 | – | – | – | – | – | – |
| Cc1ccc(C(=O)CCN(CCO)CCO)o1 [Example 145, 2-(N-bishydroxyethyl)aminoethyl-5-methyl-2-furylketone] | 0 | 10 | 20 | 50 | 30 | 30 | – | – | – | – | – | – |
| Cc1ccc(C(=O)CCN(CCO)C(C)C)o1 [Example 146, 2-(N-isopropylhydroxyethyl)aminoethyl-5-methyl-2-furylketone] | 0 | 0 | 0 | 50 | 30 | 90 | – | – | – | – | – | – |
| O=C(CCN(CCO)CCO)c1ccc2ccccc2c1 [Example 147, 2-(N-bishydroxyethyl)aminoethyl-2-naphthylketone] | 0 | 0 | 0 | 20 | 60 | 90 | – | – | – | – | – | – |
| COc1ccc(C(=O)CCN(CCO)CCO)cc1 [Example 148, 2-(N-bishydroxyethyl)aminoethyl-4-methoxyphenylketone] | 0 | 0 | 0 | 20 | 30 | 90 | – | – | – | – | – | – |
| O=C(CCN(CCO)CCO)c1cccs1 [Example 149, 2-(N-dihydroxyethyl)aminoethylthiophenylketone] | 0 | 0 | 0 | 20 | 20 | 80 | – | – | – | – | – | – |
| O=C(CCN(CCO)CCO)c1cccnc1 [Example 150, 2-(N-bishydroxyethyl)aminoethyl-3-pyridylketone] | 0 | 0 | 10 | 30 | 20 | 50 | – | – | – | – | – | – |
| CC(C)N(CCO)CCC(=O)c1cnccn1 [Example 151, 2-(N-isopropylhydroxyethyl)aminoethyl-2-pyrazylketone] | 0 | 0 | 0 | 20 | 20 | 50 | – | – | – | – | – | – |
| Cc1ccc(C(=O)CCNCc2ccccc2)o1 [Example 152, 2-(N-benzyl)aminoethyl-5-methyl-2-furylketone] | 0 | 10 | 30 | 20 | 10 | 30 | – | – | – | – | – | – |
| CC(C)N(CCO)CCC(=O)c1ccco1 [Example 153, 2-(N-hydroxyethylisopropyl)aminoethyl-2-furylketone] | 0 | 0 | – | – | – | – | > 100 | 10 | 50 | 20 | 60 | 80 |
| CC(C)N(CCO)CCC(=O)c1ccccn1 [Example 154, 2-(N-hydroxyethylisopropyl)aminoethyl-2-pyridylketone] | 0 | 0 | 0 | 40 | 20 | 80 | – | – | – | – | – | – |
| CC(C)N(CCO)CCC(=O)c1ccncc1 [Example 155, 2-(N-hydroxyethylisopropyl)aminoethyl-4-pyridylketone] | 0 | 0 | 0 | 20 | 50 | 80 | – | – | – | – | – | – |
| CC(C)N(CCO)CCC(=O)c1nccs1 [Example 156, 2-(N-hydroxyethylisopropyl)aminoethyl-2-thiazolylketone] | 0 | 10 | 20 | 20 | 30 | 60 | – | – | – | – | – | – |
| CC(CN(CCO)C(C)C)C(=O)c1ccc(F)cc1 (centres unmarked) [Example 157, 1-methyl-2-(N-hydroxyethylisopropyl)aminoethyl-4-fluorophenylketone] | 0 | 0 | 0 | 0 | 0 | 0 | – | – | – | – | – | – |
| CC(C)N(CCO)CCC(=O)c1cccnc1 [Example 158, 2-(N-isopropylhydroxyethyl)aminoethyl-3′-pyridylketone] | 0 | 0 | 0 | 30 | 20 | 20 | – | – | – | – | – | – |
| CC(CN(CCO)Cc1ccccc1)C(=O)c1ccc(F)cc1 (centres unmarked) [Example 159, 2-(N-hydroxyethylbenzyl)amino-1-methylethyl-4-fluorophenylketone] | 0 | 0 | 20 | 0 | 0 | 20 | – | – | – | – | – | – |
| CC(CN(CCO)CCO)C(=O)c1ccc(F)cc1 (centres unmarked) [Example 160, 2-(N-bis(hydroxyethyl))amino-1-methylethyl-4-fluorophenylketone] | 0 | 20 | 60 | 0 | 0 | 20 | – | – | – | – | – | – |
| CC(CN(CCO)C(C)(C)C)C(=O)c1ccc(F)cc1 (centres unmarked) [Example 161, 2-(N-hydroxyethyl-t-butyl)amino-1-methylethyl-4-fluorophenylketone] | 0 | 0 | 20 | 0 | 0 | 20 | – | – | – | – | – | – |
| CC(CN(Cc1ccccc1)C(C)(C)C)C(=O)c1ccc(F)cc1 (centres unmarked) [Example 162, 2-(N-t-butylbenzyl)amino-1-methylethyl-4-fluorophenylketone] | 0 | 0 | 40 | 0 | 0 | 0 | – | – | – | – | – | – |
